The target of one assay is T1, Kv1.3 potassium channel (Homo sapiens, UniProt P22001).
T1 construct: expressed in transfected cells
Briefly: Kv1.3 potassium channel blocker activity, automated whole-cell patch clamp (Patchliner). In kind it is cell-based. Particulars: Table 7; CHO-K1 cells stably expressing Kv1.3; whole cell current, pulses -90 mV to +40 mV; read-out: Kv1.3_IC50. The procedure, abridged: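 CHO-K1 cells stably expressing Kv1.3, automated whole-cell patch clamp; 100 ms steps from −90 to +40 mV at 0.1 Hz, 20-pulse trains, P/4 leak subtraction. Cumulative 30 nM–100 μM on one cell, ≤10 s incubation; last-pulse peak/AUC normalised to control, IC50 from Hill fit.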

The target in the next assay is T2, hERG channel (Homo sapiens, UniProt Q12809).
T2 construct: expressed in transfected cells
In words: hERG electrophysiology, automated whole-cell patch clamp (Patchliner). In kind it is cell-based. To be noted: Table 7; CHO-K1 cells stably expressing hERG; whole cell current, tail current protocol; read-out: hERG_IC50. The procedure:
Example 68. Evaluation of hERG Activities
This assay is used to evaluate the disclosed compounds' inhibition activities against the hERG channel.
CHO-K1 cells stably expressing hERG were grown in Ham's F-12 Medium with Glutamine containing 10% heat-inactivated FBS, 1% Penicillin/Streptomycin, Hygromycin (100 μg/ml) and G418 (100 μg/ml). Cells were grown in culture flasks at 37° C. in a 5% CO2-humidified incubator.
The cells were bathed in an extracellular solution containing 140 mM NaCl, 4 mM KCl, 2 mM CaCl2), 1 mM MgCl2, 5 mM Glucose, 10 mM HEPES; pH adjusted to 7.4 with NaOH; 295-305 mOsm. The internal solution contained 50 mM KCl, 10 mM NaCl, 60 mM KF, 20 mM EGTA, 10 mM HEPES; pH adjusted to 7.2 with KOH; 285 mOsm. All compounds were dissolved in DMSO at 30 mM. Compound stock solutions were freshly diluted with external solution to concentrations of 30 nM, 100 nM, 300 nM, 1 μM, 3 μM, 10 μM, 30 μM and 100 μM. The highest content of DMSO (0.3%) was present in 100 μM.
The voltage protocol (see Table 5) was designed to simulate voltage changes during a cardiac action potential with a 300 ms depolarization to +20 mV (analogous to the plateau phase of the cardiac action potential), a repolarization for 300 ms to −50 mV (inducing a tail current) and a final step to the holding potential of −80 mV. The pulse frequency was 0.3 Hz. Control (compound-free) and compound pulse trains for each compound concentration applied contained 70 pulses.
Whole cell current recordings and compound application were enabled by means of an automated patch clamp platform Patchliner (Nanion). EPC 10 patch clamp amplifier (HEKA) along with Patchmaster software (HEKA Elektronik Dr. Schulze GmbH) was used for data acquisition. Data were sampled at 10 kHz without filtering. Increasing compound concentrations were applied consecutively to the same cell without washouts in between.
AUC and PEAK values were obtained with Patchmaster (HEKA Elektronik Dr. Schulze GmbH). To determine IC50 the last single pulse in the pulse train corresponding to a given compound concentration was used. Obtained AUC and PEAK values in the presence of compound were normalized to control values in the absence of compound. Using Origin (OridinLab), IC50 was derived from data fit to Hill equation: Icompound/Icontrol=(100−A)/(1+([compound]/IC50)nH)+A, where IC50 is the concentration at which current inhibition is half-maximal, [compound] is the applied compound concentration, A is the fraction of current that is not blocked and nH is the Hill coefficient.

T2 sequence (Q12809 whole entry): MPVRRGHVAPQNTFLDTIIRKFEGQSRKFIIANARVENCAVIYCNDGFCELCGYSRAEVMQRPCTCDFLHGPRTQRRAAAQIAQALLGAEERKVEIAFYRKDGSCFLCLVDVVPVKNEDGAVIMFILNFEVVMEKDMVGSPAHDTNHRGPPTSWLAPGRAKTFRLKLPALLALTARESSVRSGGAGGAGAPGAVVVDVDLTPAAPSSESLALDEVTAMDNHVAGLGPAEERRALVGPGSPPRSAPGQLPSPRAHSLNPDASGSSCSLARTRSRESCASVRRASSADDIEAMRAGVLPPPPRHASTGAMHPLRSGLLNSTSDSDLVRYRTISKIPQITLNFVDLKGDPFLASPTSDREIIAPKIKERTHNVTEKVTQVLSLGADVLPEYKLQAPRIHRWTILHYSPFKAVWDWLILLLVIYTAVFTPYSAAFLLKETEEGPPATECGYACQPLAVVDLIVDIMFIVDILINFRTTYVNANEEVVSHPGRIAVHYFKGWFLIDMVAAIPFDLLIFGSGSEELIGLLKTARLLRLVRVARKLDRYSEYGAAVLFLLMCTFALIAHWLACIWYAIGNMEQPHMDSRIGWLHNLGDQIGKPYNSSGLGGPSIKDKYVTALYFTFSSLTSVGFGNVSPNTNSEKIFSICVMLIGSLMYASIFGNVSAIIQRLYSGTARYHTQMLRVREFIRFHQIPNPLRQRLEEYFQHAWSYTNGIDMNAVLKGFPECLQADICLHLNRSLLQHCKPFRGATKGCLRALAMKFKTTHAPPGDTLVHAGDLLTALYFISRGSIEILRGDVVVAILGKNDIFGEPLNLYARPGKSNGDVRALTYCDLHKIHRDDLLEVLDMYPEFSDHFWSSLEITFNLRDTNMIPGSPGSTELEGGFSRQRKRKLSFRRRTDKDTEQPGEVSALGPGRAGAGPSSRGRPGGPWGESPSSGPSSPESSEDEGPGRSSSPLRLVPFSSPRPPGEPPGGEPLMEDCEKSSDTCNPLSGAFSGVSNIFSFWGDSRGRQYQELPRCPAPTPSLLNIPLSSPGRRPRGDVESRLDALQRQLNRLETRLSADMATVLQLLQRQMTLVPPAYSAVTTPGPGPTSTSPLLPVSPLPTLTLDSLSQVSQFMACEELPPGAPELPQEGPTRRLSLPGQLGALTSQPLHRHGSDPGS
T1 sequence (P22001 whole entry): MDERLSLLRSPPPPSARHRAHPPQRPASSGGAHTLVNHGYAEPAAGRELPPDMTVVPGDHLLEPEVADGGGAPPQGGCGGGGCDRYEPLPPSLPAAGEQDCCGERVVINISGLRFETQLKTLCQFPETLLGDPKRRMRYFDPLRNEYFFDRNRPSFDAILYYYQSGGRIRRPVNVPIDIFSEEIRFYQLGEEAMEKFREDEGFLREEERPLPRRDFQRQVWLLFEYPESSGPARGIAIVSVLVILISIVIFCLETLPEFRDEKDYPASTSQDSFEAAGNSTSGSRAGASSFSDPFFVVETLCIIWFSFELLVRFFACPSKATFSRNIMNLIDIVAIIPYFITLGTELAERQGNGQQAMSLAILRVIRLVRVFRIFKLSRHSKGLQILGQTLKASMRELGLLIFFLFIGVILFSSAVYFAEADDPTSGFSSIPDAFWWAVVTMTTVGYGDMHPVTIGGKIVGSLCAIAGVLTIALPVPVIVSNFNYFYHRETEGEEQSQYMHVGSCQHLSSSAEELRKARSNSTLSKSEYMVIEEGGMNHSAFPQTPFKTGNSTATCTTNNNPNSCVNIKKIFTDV

`C[C@H](NC(=O)C1CN(CCO)C1)c1c(O)ccc(Cl)c1Cl` [Compound 89, N-[(1S)1-(2,3-dichloro-6-hydroxyphenyl)ethyl]-1-(2-hydroxyethyl) azetidine-3-carboxamide]: the IC50 at Kv1.3 potassium channel was < 1 µM; at hERG channel, > 30 µM.

In the case of `Cc1cc(O)c([C@H](N)CNC(=O)C2CNC2)cc1Cl` [Compound 94, N-[(2S)-2-amino-2-(5-chloro-2-hydroxy-4-methylphenyl)ethyl]azetidine-3-carboxamide], the values for the IC50 on Kv1.3 potassium channel and at hERG channel were < 1 µM and > 30 µM, respectively.

As for `C[C@H](NC(=O)C1CNC1)c1c(O)ccc(Cl)c1Br` [Compound 98, N-[(1S)-1-(2-bromo-3-chloro-6-hydroxyphenyl)ethyl]azetidine-3-carboxamide], the results for the IC50 on Kv1.3 potassium channel and at hERG channel were < 1 µM and > 30 µM, respectively.

(Values after patent publication US20230131535A1, “ARYLMETHYLENE AROMATIC COMPOUNDS AS Kv1.3 POTASSIUM SHAKER CHANNEL BLOCKERS” (D. E. Shaw Research, LLC, priority 2019, published 2023).)
